Assay results reported in PubChem BioAssay AID1159585 (Gregory J. Crowther, 2016).

molecular target: Calcium-dependent protein kinase 1 (Plasmodium falciparum (isolate 3D7)) (UniProt P62344); experiment: PfCDPK1 kinase inhibitors, biochemical, TCAMS library (AID 1159585); conditions: recombinant PfCDPK1, Kinase-Glo ATP depletion luminescence;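 note: inhibitors leave more ATP so luminescence rises with inhibition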
Sequence (P62344 whole entry, looked up): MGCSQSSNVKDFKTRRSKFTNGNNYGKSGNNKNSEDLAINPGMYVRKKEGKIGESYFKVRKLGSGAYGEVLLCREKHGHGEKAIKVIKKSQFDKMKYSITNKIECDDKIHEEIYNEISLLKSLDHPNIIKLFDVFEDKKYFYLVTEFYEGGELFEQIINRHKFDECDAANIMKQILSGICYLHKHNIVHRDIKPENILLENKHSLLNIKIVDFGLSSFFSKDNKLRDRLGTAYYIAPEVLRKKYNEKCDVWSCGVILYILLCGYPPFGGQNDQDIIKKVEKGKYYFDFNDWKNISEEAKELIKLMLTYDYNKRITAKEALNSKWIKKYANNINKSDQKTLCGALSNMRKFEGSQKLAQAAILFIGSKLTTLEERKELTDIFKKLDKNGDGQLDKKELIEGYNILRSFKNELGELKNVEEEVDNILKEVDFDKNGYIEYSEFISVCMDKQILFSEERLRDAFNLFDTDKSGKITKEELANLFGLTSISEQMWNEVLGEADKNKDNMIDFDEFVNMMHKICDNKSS

`CCn1c(-c2nonc2N)nc2c(-c3ccccc3)ncc(OCCCCNCCc3ncc[nH]3)c21` was tested. Which IC50 did it give?
Its IC50 is 94 nM.

For `Nc1ncc(-c2cn[nH]c2)cc1-c1nc2ncc(Cl)cc2[nH]1`, which IC50 is on record?
Its IC50 is 280 nM.

With `Cc1ccc(Nc2nccc(Nc3ccc4c(c3)nc(Nc3cc(C(C)(C)C)on3)n4C)n2)cc1S(C)(=O)=O` as the compound, how does the IC50 read?
The IC50 was 242 nM.

For `COCCNCc1ncsc1-c1ccc2c(Nc3cc(O)c(Cl)cc3F)ccnc2c1`, which IC50 is on record?
The IC50 was 150 nM.

How did the IC50 turn out when `O=C(NCCCN1CCCCC1)c1cccc(Nc2nccc(Nc3ccc(Oc4ccccc4)cc3)n2)c1` was run?
Its IC50 is 243 nM.

How did the IC50 turn out when `COc1ccc(C(=O)NCC(C)(C)c2nc(-c3ccc(Cl)c(O)c3)c(-c3ccncc3)[nH]2)cc1OCCN(C(C)C)C(C)C` was run?
The IC50 was 387 nM.

With `Cc1cccc(Nc2nc(NCCCCN)nc3cc[nH]c(=O)c23)c1` as the compound, how does the IC50 read?
The IC50 was 566 nM.

With `CC(C)(CNC(=O)C1CCN(Cc2ccoc2)CC1)c1nc(-c2ccc(Cl)c(O)c2)c(-c2ccncc2)[nH]1` as the compound, how does the IC50 read?
Its IC50 is 425 nM.

Which IC50 does the source give for `O=S1(=O)NCc2ccc(Nc3nccc(Nc4ccc5c(cnn5Cc5ccccc5)c4)n3)cc21` here?
Its IC50 is 110 nM.

Which IC50 does the source give for `CNC(=O)c1ccccc1Nc1nc(Nc2cccc(CS(C)(=O)=O)c2)ncc1C` here?
Its IC50 is 145 nM.

`CC(C)(CNC(=O)C1CCN(CCOCc2ccccc2)CC1)c1nc(-c2ccc(Cl)c(O)c2)c(-c2ccncc2)[nH]1` was tested. Which IC50 did it give?
The IC50 was 734 nM.

Which IC50 does the source give for `CN(C)CCOc1ccc(-c2cc(-c3ccnc(N)n3)c(-c3ccc(Cl)c(O)c3)o2)cc1` here?
Its IC50 is 684 nM.

`CS(=O)(=O)CCNCc1cccc(-c2ccc3c(Nc4ccc(Oc5cccnc5)cc4)ccnc3c2)c1` was tested. Which IC50 did it give?
The IC50 was 966 nM.

How did the IC50 turn out when `CCn1c(-c2nonc2N)nc2c(-c3cccc(NC(=O)Nc4ccc(Cl)cc4)c3)ncc(OCCCN)c21` was run?
The IC50 was 44 nM.

Which IC50 does the source give for `c1ccc(Oc2ccc(Nc3ccnc4cc(-c5ccc(CNCCN6CCOCC6)o5)ccc34)cc2)cc1` here?
The IC50 was 435 nM.

How did the IC50 turn out when `CN(C(=O)c1cc2c(-c3cncnc3)cccc2[nH]1)c1ccccc1` was run?
The IC50 was 271 nM.

How did the IC50 turn out when `CC(C)(CNCc1ccc(Cl)c(Cl)c1)c1nc(-c2ccc(Cl)c(O)c2)c(-c2ccncc2)[nH]1` was run?
Its IC50 is 539 nM.

For `CCn1c(-c2nonc2N)nc2c(-c3ccc(CO)o3)ncc(OCCCN)c21`, which IC50 is on record?
The IC50 was 51 nM.

Which IC50 does the source give for `COc1cccc(Nc2nccc(-c3c(-c4cccc(NC(=O)c5c(F)cccc5F)c4)nn4ccccc34)n2)c1` here?
The IC50 was 87 nM.

Which IC50 does the source give for `COc1ccc(Nc2ncc3c(-c4cccc(NC(=O)Cc5ccc(O)cc5)c4)c[nH]c3n2)cc1OC` here?
The IC50 was 98 nM.

With `COc1ccc(Nc2ncc(Cl)c(Nc3cccnc3C(N)=O)n2)cc1N1CCN(C)CC1` as the compound, how does the IC50 read?
Its IC50 is 559 nM.

How did the IC50 turn out when `Cc1cc(F)ccc1-c1nc(Nc2ccncc2)c2ccn(C)c2n1` was run?
The IC50 was 40 nM.

For `CCn1c(-c2nonc2N)nc2c(-c3cccc(NC(=O)Nc4ccccc4OC)c3)ncc(OCCCN)c21`, which IC50 is on record?
The IC50 was 32 nM.

`Oc1cc(-c2nc(-c3ccccc3)[nH]c2-c2ccncc2)ccc1Cl` was tested. Which IC50 did it give?
Its IC50 is 975 nM.

How did the IC50 turn out when `CS(=O)(=O)Cc1ccc(Nc2nccc(-c3c(-c4cccc(NC(=O)C5CCCCC5)c4)nn4ncccc34)n2)cc1` was run?
The IC50 was 37 nM.

Which IC50 does the source give for `CNC(=O)c1ccccc1Nc1nc(Nc2ccc(N3CCOCC3)cc2)ncc1Cl` here?
The IC50 was 144 nM.

`CC(C)(CN)c1cc(-c2ccc(Cl)c(O)c2)c(-c2ccncc2)o1` was tested. Which IC50 did it give?
The IC50 was 13 nM.

For `CN(C)CCN(C)Cc1ccc(-c2ccc3c(Nc4ccc(Oc5ccccc5)cc4)ccnc3c2)o1`, which IC50 is on record?
The IC50 was 718 nM.

With `CC(C)(CNCc1ccc(Cl)cc1)c1nc(-c2ccc(Cl)c(O)c2)c(-c2ccncc2)[nH]1` as the compound, how does the IC50 read?
Its IC50 is 257 nM.

How did the IC50 turn out when `Cc1ccc(Nc2nccc(N(C)c3ccc4c(c3)nc(NC(=O)Cc3ccc(Cl)c(Cl)c3)n4C)n2)cc1S(N)(=O)=O` was run?
Its IC50 is 345 nM.

With `CCn1c(-c2nonc2N)nc2c(-c3cccc(NC(=O)NC45CC6CC(CC(C6)C4)C5)c3)ncc(OCCCN)c21` as the compound, how does the IC50 read?
Its IC50 is 84 nM.

How did the IC50 turn out when `CN(C)CCNCc1ccc(-c2ccc3c(Nc4ccc(Cl)cc4F)ccnc3c2)o1` was run?
The IC50 was 374 nM.

Which IC50 does the source give for `CC(C)(CNC(=O)[C@H]1CCCN1)c1nc(-c2ccc(Cl)c(O)c2)c(-c2ccncc2)[nH]1` here?
The IC50 was 179 nM.

With `NS(=O)(=O)CCc1cccc(Nc2nccc(-c3c(-c4cccc(NC(=O)c5c(F)cccc5F)c4)nn4ccccc34)n2)c1` as the compound, how does the IC50 read?
Its IC50 is 20 nM.

Which IC50 does the source give for `O=C(NCCN1CCCC1)c1cccc(Nc2nccc(Nc3ccc(Oc4ccccc4)cc3)n2)c1` here?
The IC50 was 213 nM.

How did the IC50 turn out when `CC(C)(CNC(=O)[C@H]1CCCCN1)c1nc(-c2ccc(Cl)c(O)c2)c(-c2ccncc2)[nH]1` was run?
Its IC50 is 164 nM.
